Results from BindingDB's records for doi:10.7270/Q2NC5ZS3 (Burnham Center For Chemical Genomics, 2012).

target: T1, Corticotropin-releasing factor-binding protein (Homo sapiens, UniProt P24387)
T1 sequence (P24387 whole entry): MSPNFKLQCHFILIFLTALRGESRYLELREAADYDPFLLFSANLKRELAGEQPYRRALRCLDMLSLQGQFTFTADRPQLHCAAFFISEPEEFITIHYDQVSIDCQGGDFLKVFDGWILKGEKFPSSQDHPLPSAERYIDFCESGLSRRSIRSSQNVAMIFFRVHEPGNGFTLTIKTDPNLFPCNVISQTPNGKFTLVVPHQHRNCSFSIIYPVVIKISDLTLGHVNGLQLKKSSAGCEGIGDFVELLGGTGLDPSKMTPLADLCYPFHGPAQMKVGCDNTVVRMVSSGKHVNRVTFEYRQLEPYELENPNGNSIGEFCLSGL

SMILES | IC50 [µM]
N#CC(C(=O)COc1ccc(Cl)cc1)c1nc2ccccc2s1 (centres undefined) | > 20
O=C(O)c1ccc(CN=Nc2cccc(C(F)(F)F)c2)cc1 | > 20
COC(=O)c1ccc(C(=O)C(C#N)c2nc3ccccc3s2)cc1 (centres undefined) [4-[(2Z)-2-(3H-1,3-benzothiazol-2-ylidene)-2-cyano-1-oxoethyl]benzoic acid methyl ester] | > 20
N#CC(C(=O)Cc1cccc2ccccc12)c1nc2ccccc2s1 (centres undefined) [(2Z)-2-(3H-1,3-benzothiazol-2-ylidene)-4-naphthalen-1-yl-3-oxobutanenitrile] | 11.3
COc1ccc(/C=N/OCC(=O)NNC2=c3cc(Br)ccc3=NC2=O)cc1 [MLS000587830] | > 20
Cn1c(O)c(N=Nc2ccc([N+](=O)[O-])cc2)sc1=S [MLS002608645] | 1
CN1c2ccccc2C(=O)C(C(=S)Nc2ccc(Cl)cc2)S1(=O)=O (centres undefined) [N-(4-chlorophenyl)-4-hydroxy-1-methyl-2,2-dioxo-1,2-dihydro-2lambda~6~,1-benzothiazine-3-carbothioamide] | > 20
O=NCc1ccc(Oc2ccc(F)cc2)c([N+](=O)[O-])c1 [N-[[4-(4-fluorophenoxy)-3-nitrophenyl]methylidene]hydroxylamine] | 17.5
Cc1ccc(-n2[nH]c(C)c(CN=Nc3ccc([N+](=O)[O-])cc3[N+](=O)[O-])c2=O)cc1 [SMR000171521] | 15.5

Continued, values first:

IC50 [µM] | SMILES
> 20 | Cc1ccc2nc(N3C(=O)C(=O)C(C(=O)c4ccco4)C3c3cccc(O)c3)sc2c1 (centres undefined)
> 20 | Cc1cc(=O)oc2c1ccc1oc(C(N=O)c3ccccc3)c(C)c12 (centres undefined) [4,9-dimethyl-8-(N-oxidanyl-C-phenyl-carbonimidoyl)furo[2,3-h]chromen-2-one]
10.4 | Cc1ccc2nc(N3C(=O)C(=O)C(C(=O)c4ccc(C)o4)C3c3cccc(O)c3)sc2c1 (centres undefined) [4-hydroxy-2-(3-hydroxyphenyl)-1-(6-methyl-1,3-benzothiazol-2-yl)-3-(5-methylfuran-2-carbonyl)-2H-pyrrol-5-one]
9.4 | COc1ccc(C(C)N=Nc2ccc([N+](=O)[O-])cc2S(=O)(=O)Nc2ccccc2C(=O)O)c(OC)c1 (centres undefined) [MLS002249507]
> 20 | Cc1ccc(S(=O)(=O)N(CC(=O)NNC2=c3ccccc3=NC2=O)c2ccc(C)c(C)c2)cc1 [SMR000207608]
